According to US10583115B2, “Modulators of 14-3-3 functionality and uses thereof” (University of South Australia, priority 2014, dated 2020):
Entries after “also recorded” stand apart in the source; their conditions may differ. Values belong to the molecule of their own block, whether it stands above or below them.

Experiments:
[1] = test system: Jurkat cells over-expressing Bcl-2; test: Apoptosis assays in Jurkat cells over-expressing Bcl-2; type: cell-based; conditions: 5 μM, 20 hours
Protocol: Jurkat cells were obtained from the ATCC and A549 cell lines from ECACC. Jurkat cells were routinely cultured in RPMI with 10% FBS and A549 cells in DMEM with 10% FBS at 37° C. with 5% CO2 Jurkat Bcl-2 cells were generated by lentiviral transduction using a third generation lentiviral construct, as described previously (10) containing a Bcl-2α-IRES-IL2Rα encoding cassette. Transduced cells were FACS sorted for expression of IL2Rα using anti-CD25-PE (BD Pharmingen #555433) to enrich for Bcl-2 over-expressing cells and protein expression was further confirmed by immunoblotting with anti-Bcl-2 antibody (#610538; BD Transduction Laboratories, data not shown).
(§1) Jurkat cells were routinely set up in apoptosis assays at 2×10^5/ml in RPMI with 0.5% FBS. After treatment, cells were stained either with 200 nM TMRE, 5 μl/ml NucView™ (Biotium), or Annexin V-FITC (Roche) for 15 mins prior to analysis by flow cytometry. Forward- and side-scatter properties were used to exclude debris and a ‘viable’ gate corresponding to the intact, PI negative cell population was used for fluorescence analysis. For A549, cells at 90% confluency were treated with RB compounds for 48 hrs in DMEM with 0.5% FBS. After treatment, cells were released with trypsin and then stained with NucView™ prior to analysis by flow cytometry.

[2] = reported value; cited from earlier work
[3] = test system: recombinant 14-3-3ζ; test: 14-3-3 phosphorylation assay (PKA, in vitro); type: biochemical; conditions: S58A versus Wt recombinant 14-3-3
Protocol: (§2) Substrate 14-3-3 (0.5 μg of purified recombinant 14-3-3) was added to 15 μl reaction mixture comprising 0.2 U of the PKA catalytic subunit, in the presence or absence of compounds (delivered in 0.1% v/v ethanol) in PKA reaction buffer (10 mM Tris-HCl pH 7.4, 15 mM MgCl2, 3 mM DTT) containing 25 μM ATP and 0.3 μCi [^32P] 7-ATP). Reactions were incubated at 37° C. for 15 min. After incubation, reactions were separated on 12.5% SDS-PAGE, coomassie stained and 14-3-3 phosphorylation analysed by autoradiography.

[4] = biological target: T1, recombinant 14-3-3ζ (Homo sapiens, UniProt P63104); test: 14-3-3 phosphorylation assay (PKA, in vitro); type: biochemical
T1 construct: 0.5 μg of purified recombinant 14-3-3
T1 sequence (P63104 1-245): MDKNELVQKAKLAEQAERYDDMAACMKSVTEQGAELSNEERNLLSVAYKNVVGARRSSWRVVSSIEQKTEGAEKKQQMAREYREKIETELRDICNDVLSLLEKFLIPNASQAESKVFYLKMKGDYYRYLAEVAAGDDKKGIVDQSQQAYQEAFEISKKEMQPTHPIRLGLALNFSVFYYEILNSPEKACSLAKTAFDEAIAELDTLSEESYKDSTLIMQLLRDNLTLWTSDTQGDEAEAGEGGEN
Protocol: as §2

[5] = test system: Jurkat cells; test: Jurkat apoptosis assays (TMRE, caspase 3, Annexin V, viability by flow cytometry); type: cell-based
Protocol: as §1

[6] = test system: A549 cells; test: A549 cell viability by MTS assay; type: cell-based, human; conditions: 48 hrs treatment
Protocol: A549 cells (2500/well) were plated in 96 well trays in DMEM with 0.5% FBS and cultured at 37° C. with 5% CO2 overnight. The following day RB compounds were added and cells incubated for a further 48 hours prior to removal of the medium and replacement with MTS reagent diluted 1:6 in Dulbecco's PBS. The cells were incubated at 37° C. for a further 4 hours and the conversion of MTS to the coloured formazan compound determined by measurement of absorbance at 490 nm.

[7] = test system: incisional wounds of dorsal skin; test: Incisional wound healing model; type: in vivo, mice
Protocol: A murine model of wound healing was utilised. In this model, 2×1 cm full thickness wounds were created in the dorsal skin. Wound healing was monitored using cohorts of mice humanely killed at 3, 5, 7 and 14 days post-wounding. Re-epithelialization was quantified histologically, by measuring the distance between epithelial margins sectioned in the transverse plane (Ansell D. M. et al. (2014) Wound Rep Reg 22: 281-287).
Incisional wounding was carried out as we have previously detailed (Lees et al. (2013) The Journal of investigative dermatology 133, 1330-1339). Briefly, two full-thickness 1 cm incisions were created on the dorsal skin of 12 week old female mice and allowed to heal. RB-11 (10 μg per mouse), 4-hydroxytamoxifen (50 μg per mouse) or vehicle was applied in a total volume of 20 μl to the edge of each wound using a micropipette and allowed to absorb into the skin. At the appropriate time point (2, 5, 7, 14 and 21 days) following incisional wounding, mice were humanely killed and tissues harvested. From each mouse, one wound was completed excised and fixed in 4% formalin overnight at 4° C. Following fixation, the wound was carefully bisected at the middle across the wound, processed and embedded in paraffin for histological and immunofluorescence analysis. Wound widths were measured on scanned images of H&E stained sections using NDPView slide scanning and image quantification software. The remaining wound was bisected across the wound, snap-frozen and processed for gene expression analysis.
14-3-3ζ-deficient and wild-type mice were subjected to the incisional wounding protocol followed by treatment with vehicle or RB-11 (5× daily topical treatments of 11.5 μg). […] Slides were optically scanned using a Nanozoomer slide scanner (Hamamatsu, Japan) and the wound gap measured using Imagescope software (Leica Biosystems, Germany). Values were plotted on a box and whisker plot and statistical significant assessed using the Mann-Whitney test together with Dunnett's post hoc test.

[8] = test system: WT dermal fibroblasts; test: Collagen remodeling assay and cell morphology, wild-type dermal fibroblasts; type: cell-based, mice; conditions: 10 μM
Protocol: (§3) Rat-tail tendon collagen was prepared by extraction with 0.5 M acetic acid to a concentration of ˜2 mg/ml. 8×10^4 cells/ml WT or 14-3-3ζ KO dermal fibroblasts (labeled with either eGFP or mCherry) were embedded in this three-dimensional collagen 1 matrix and incubated in DMEM with 10% FCS and 10 mM L-Glutamine at 37° C. and 5% CO2. Detached polymerized matrix (2.5 ml) was allowed to contract for 11 days. During contraction, matrices were either left untreated or incubated with 10 μM RB-11. Media was changed on day 1 and on day 6. To calculate contraction rates and obtain information on cell morphology matrices were imaged every second day in phase contrast on a Leica DMIL LED inverted microscope with either a 4×/NA0.10 HI PLAN or a 10×/NA0.22 HI PLAN I air objective.
(§4) Measuring the mean diameter of three matrices and normalizing the diameter to day 1 determined contraction rates. Cell morphology was described by manually counting the number of cell protrusions/cell and the number of blebbing cells.
To determine the circularity of cells images were processed in ImageJ (NIH) according to following routine. Images were converted to 8 Bit images and cropped to an image size equivalent to […]. Grey values were thresholded to select cells. The ‘analyze particles’ function was used to determine circularity of cells. Circularity values range from 0 to 1 with ‘0’ representing rod-shaped cells and ‘1’ representing perfectly circular cells.
10^6 14-3-3ζ-deficient or wild-type dermal fibroblasts were embedded in 2 mg/mL % rat tail collagen plugs made with or without 10 μM RB-11. The plugs were maintained in DMEM containing 10% foetal bovine serum in a humidified incubator at 37° C. Collagen plugs were photographed on days 2, 6 and 12 and the area of the image occupied by the collage plug measured.

[9] = test system: A549 cells; test: A549 caspase-3 activation (NucView, flow cytometry); type: cell-based, human; conditions: 48 hrs treatment
Protocol: as §1

[10] = test system: 14-3-3ζ KO dermal fibroblasts; test: Collagen remodeling assay and cell morphology, 14-3-3ζ KO dermal fibroblasts; type: cell-based, mice; conditions: 10 μM
Protocol: as §3, §4
To determine the circularity of cells images were processed in ImageJ (NIH) according to following routine. […]
10^6 14-3-3ζ-deficient or wild-type dermal fibroblasts were embedded in 2 mg/mL % rat tail collagen plugs made with or without 10 μM RB-11. […] Collagen plugs were photographed on days 2, 6 and 12 and the area of the image occupied by the collage plug measured.

[11] = test system: A549 xenograft; test: A549 xenograft study; type: in vivo, BALB/c nude mice
Protocol: All experimental procedures involving animals were conducted in accordance with the NHMRC Australian Code for the Care and Use of Animals for Scientific Purposes and with approval by the institutional animal ethics committee. BALB/c nude mice (Nu/Nu, female, 5-6 weeks old) were purchased from the Animal Resources Centre (Perth, Wash.) and maintained under pathogen-free conditions. A549 cells (5×106) in 100 μl PBS were injected subcutaneously into the flanks of the mice and the resulting tumour were measured using digital callipers. The tumour volume was calculated using the following formula: Volume=(larger diameter)×(small diameter)2/2. Once the tumours had reached 100 mm3, mice were divided into groups of 9 and each group administered either RB-012 in saline, FTY720 in saline or saline alone by intraperitoneal injection daily. Initially RB-12 and FTY720 were administered at 2 mg/kg for two days and then the dose was increased to 5 mg/kg for two weeks after which RB-012 was increased to 10 mg/kg but FTY720 maintained at 5 mg/kg. During this dosing regime tumours were monitored twice a week. Differences between samples were analysed using 2 way Anova and statistical significance was accepted at P<0.05.
To assess the effect of RB-012 on human lung cancer growth in vivo, A549 cells were implanted subcutaneously on the flanks of Balb/C nude mice and tumours allowed to develop until they had reached a volume of 100 mm^3. RB-012 or saline was then administered daily to assess the effect on tumour growth. Initially, to reduce the cramping and encourage tolerance, 2 mg/kg RB-012 was administered for two days and then the dose was increased to 5 mg/kg daily for two weeks. Tumour volume was monitored twice a week and after two weeks of treatment mice administered RB-012 had tumours that were 20% smaller than mice receiving saline. […] The tumours on the RB-012 treated mice continued to grow more slowly and after the third week were 30% smaller than those of saline-treated mice (P<0.05). […] Therefore we were unable to increase FTY720 dosing to match RB-012.

Compound: CCCCCCCCCCCCCCCC[N+](C)(C)C.[Br-] [CTAB, cetyltrimethylammonium bromide]
cell death in Bcl-2 over-expressing cells [1]: protected from CTAB-induced cell death
critical micelle concentration [2]: 0.92 mM
phosphorylation site of 14-3-3ζ revealed [3]: Ser58
concentration above which 14-3-3 phosphorylation plateaus ([4]; dose-response study): above 25 μM
concentrations able to induce 14-3-3 phosphorylation ([4]; dose-response study): low micromolar concentrations
concentration above which phosphorylation of 14-3-3 increased dramatically ([4]; potentially non-specific protein denaturation): above 75 μM
rendering 14-3-3 phosphorylatable (phosphorylation of 14-3-3 by PKA in vitro) ([4]; recombinant 14-3-3 and PKA catalytic subunit): dose-dependent increase in 14-3-3 phosphorylation
caspase-3 activation ([5]; 5 μM, 20 hours): induce caspase-3 activation

IC50 ([6]; Homo sapiens, A549): 7 µM
EC50 ([5]; Homo sapiens, Jurkat, 5 h, read-out: ED50 for apoptosis induction (initial activation of caspase-3)): 2 µM
Compound: CCCCCCCCc1ccc(CC[N+]2(C)CCCC2)cc1 [RB-011]
cell viability / growth and survival (MTS), in words [6]: inhibited
rate of re-epithelialization ([7]; WT mice, topical 10 μg [25 nmol] once daily for 7 days): increased the rate of re-epithelialization
collagen production around wound margins (SHG) ([7]; WT mice, topical 10 μg once daily for 7 days): elevated collagen production
wound healing (wound width) ([7]; wild-type mice, 5× daily topical treatments of 11.5 μg, day 5 following wounding): hastened wound healing
cell morphology by circularity analysis [8]: rounded morphology
cell morphology in 3D collagen organotypic matrices (live-cell imaging) [8]: contracted morphology
collagen remodeling ability (contraction of collagen plug/matrix) ([8]; listed as RB-11): unable to remodel the collagen plug; also recorded: significantly reduced collagen remodeling ability
caspase-3 activation [9]: induce caspase activation
ED50 for apoptosis induction, in words [5]: low micromolar range
Annexin V presentation ([5]; 5 μM, 24 hours): Annexin V presentation
cell viability ([5]; 5 μM, 24 hours): loss of viability
apoptosis as determined by caspase-3 activation ([5]; 5 μM, within 5 hours): readily able to activate apoptosis
cell morphology by circularity analysis [10]: no further change in the morphology
ability to remodel a collagen plug ([10]; compared to wild type fibroblasts): reduced ability to remodel a collagen plug

Compound: CCCCCCCCc1ccc(CCC(N)(CO)CO)cc1 [FTY720]
tumour size versus saline ([11]; 5 mg/kg daily i.p.): no reduction in tumour size; also recorded: did not elicit a reduction in tumour growth
adverse effects at 10 mg/kg ([11]; 10 mg/kg): severe cramping with cardiac arrhythmia, with fatality in some cases
tolerability at 10 mg/kg ([11]; mouse, in vivo): not tolerated
